Key:
human osteoclast = conditions: human osteoclasts in vitro; cited from earlier work
mouse osteoclast = conditions: mouse osteoclasts in vitro; cited from earlier work
GPR18 = conditions: cited from earlier work
untransfected U2OS cells = experiment: ERK1/2 phosphorylation in untransfected U2OS cells; format: cell-based

Compound | effect on osteoclast polarization and resorption produced by GPR55 agonists O-1602 and LPI (human osteoclast) | effect on osteoclast polarization and resorption produced by GPR55 agonists O-1602 and LPI (mouse osteoclast) | activity at GPR18 (GPR18) | Induction of ERK1/2 phosphorylation in untransfected U2OS cells (untransfected U2OS cells)
C=C(C)[C@@H]1CCC(C)=C[C@H]1c1c(O)cc(CCCCC)cc1O [CBD, cannabidiol] | attenuating the effects | attenuating the effects | low efficacy agonist | 
L-α-lysophosphatidylinositol [LPI] |  |  |  | neither LPI nor any of the antagonist compounds induced ERK1/2 phosphorylation

Reference: publication PMC3970910 (Biochemistry, 2013)
